Reference: patent US10125365B2, “Micro-RNAs and compositions comprising same for the treatment and diagnosis of serotonin-, adrenalin-, noradrenalin-, glutamate-, and corticotropin-releasing hormone- associated medical conditions” (Yeda Research and Development Co. Ltd., priority 2014, dated 2018)

Key:
miR-135a = assay: Real time PCR of miR-135a in raphe nucleus after antidepressant treatment; assay type: in vivo, mouse; settings: mice, 20 mg/kg i.p., acute or chronic administration
Method: Mice received i.p. injection of tricyclic-Imipramine, or SSRI-Fluoxetine, or NRI-Reboxetine (20 mg/kg in saline) or saline.
Blunted 14G syringes were used to extract the RN region from 3 mm slices removed from the matrix.
(§1) For behavioral testing, mice were injected with 20 mg/kg SSRI i.p. 30 minutes prior to the test.
Samples were then analyzed using SYBR® Green

mice [1] = assay: Tail suspension test; assay type: in vivo, mouse; settings: miR135b KD and control KD mice
Method: The tail suspension test was performed in the TSE Tail Suspension Monitor (TSE Systems, Bad Homburg, Germany). Each mouse was taped by the tip of its tail, and suspended from the force sensor for 10 minutes. Time spent immobile and time spent struggling were calculated and recorded by the software based on pre-set thresholds.

mice [2] = assay: Social avoidance test after chronic social defeat; assay type: in vivo, mouse; settings: mice exposed to social defeat, chronic treatment vs saline
Method: Mice were subjected to a social defeat protocol as previously described (Elliott et al., 2010). Briefly, mice were placed in a home cage of an aggressive ICR mouse where they physically interacted for five minutes. […] Perforated clear Plexiglas dividers were then placed between the animals and the mice remained in the same cage for 24 hours to allow sensory contact. The procedure was then repeated with an unfamiliar ICR mouse for 10 consecutive days.
as §1
Social avoidance test: In the social avoidance test, mice were placed in a 15 cm×35 cm arena with a small 15 cm×8 cm neighboring chamber separated by a divider with small open slits allowing full sensory contact. The tested mice were allowed to habituate to the arena for three minutes, and then an unfamiliar ICR mouse was placed in the neighboring chamber for another three minutes. Time spent near the divider was quantified using video tracking by Ethovision software (Noldus, Wageningen, Netherlands). Interaction ratio was calculated by dividing the time the mice spent in a defined area near the unfamiliar ICR to the time the mice spent in the same area during habitation, and multiplied by 100.

miR-135b = assay: Real time PCR of miR-135b in raphe nucleus after antidepressant treatment; settings: mice, 20 mg/kg i.p., acute or chronic administration
miR-19a/b = miR-19a/b levels in prefrontal cortex after Reboxetine; assay type: in vivo, mouse; settings: mice
Text: These animals will be also tested for anxiety like behavior, locomotor activity and memory performance. Furthermore, the levels of expression of miR-19a and miR-19b are examined in different regions of interest (E.G the hippocampus, amygdala and forebrain) following an acute and chronic systemic treatment with the Noradrenaline reuptake inhibitor Reboxetine in WT mice.
The physiological link between miRNA-19 and Adrb1 was studied by assessing the level of miR-19a/b in the prefrontal cortex (PFC) of mice that were injected with Reboxetine, a noradrenalin reuptake inhibitor (NRI), either acutely or chronically (FIGS. 12A-D).

Slc6a4 3′UTR = assay: Luciferase reporter assay, Slc6a4 3′UTR; assay type: cell-based, mouse; settings: HEK293T cells, miR over-expressing vector vs empty vector
Method: (§2) 3′UTR sequences of Slc6a4, Htr1a, MaoA and Tph2 were PCR amplified from mouse genomic DNA, or total brain cDNA. 3′UTR PCR fragments were ligated into pGEM-T easy vector (Promega) according to the manufacturer's guidelines, and further subcloned into a single NotI site at the 3′ end of luciferase in the Psicheck2 reporter plasmid (Promega). […] Cloning orientation was verified by diagnostic cuts and by sequencing.
(§3) HEK293T cells were grown on poly-L-lysine in 48-well format to a 70-85% confluence and transfected using Polyethyleneimine with the following plasmids: 5 ng of Psicheck2-3′UTR plasmid and 215 ng of over-expressing vector for a specific miRNA, or empty-miR-vec over-expression plasmids. 24 hours following transfection cells were lysed and luciferase reporters activity were assayed as previously described [Chen A. et al. Mol Endocrinol (2005) 19: 441-58]. Renilla luciferase values were normalized to control firefly luciferase levels (transcribed from the same vector but not affected by 3′UTR tested) and averaged across six well repetitions per condition.
3′ UTRs sequences of Slc6a4 and Htr1a were PCR amplified from mouse genomic DNA. 3′UTRs PCR fragments were ligated into pGEM-T easy vector (Promega) according to the manufacturer's guidelines, and further sub-cloned into a single NotI site at the 3′ end of luciferase in the psiCHECK-2 reporter plasmid (Promega). […]

Htr1a 3′UTR = assay: Luciferase reporter assay, Htr1a 3′UTR; assay type: cell-based, mouse; settings: for repression of Htr1a 3′UTR (luciferase): HEK293T cells, miR over-expressing vector vs empty vector; for seed match through which Htr1a 3′UTR is repressed: Htr1a miR-135 seed matches mutated individually or both
Method: as §2, §3
3′UTR sequence of Htr1a was PCR amplified from mouse genomic DNA. 3′UTR PCR fragments were ligated into pGEM-T easy vector (Promega) according to the manufacturer's guidelines, and further subcloned into a single NotI site at the 3′ end of luciferase in the Psicheck2 reporter plasmid (Promega). Cloning orientation was verified by diagnostic cuts and by sequencing.
as §3, with “plasmids:” for “plasmids: 5 ng of”, “Psicheck2-3′UTR plasmid, pre-mmu-miR-182 over-expression in pEGFP” for “Psicheck2-3′UTR”, “plasmid” for “plasmid and 215 ng of over-expressing vector for a specific miRNA,”, “pEGFP plasmid alone (clontech).” for “empty-miR-vec over-expression plasmids.”
3′ UTRs sequences of Slc6a4 and Htr1a were PCR amplified from mouse genomic DNA. 3′UTRs PCR fragments were ligated into pGEM-T easy vector (Promega) according to the manufacturer's guidelines, and further sub-cloned into a single NotI site at the 3′ end of luciferase in the psiCHECK-2 reporter plasmid (Promega). […] Cloning orientation was verified by diagnostic cuts and sequencing.
Twenty-four hours following transfection cells were lysed and luciferase reporter activities were assayed as previously described (Kuperman et al., 2011). […]

Molecule | miR-135a expression levels in the RN (miR-135a) | repression of Slc6a4 3′UTR (luciferase) (Slc6a4 3′UTR) | repression of Htr1a 3′UTR (luciferase) (Htr1a 3′UTR) | seed match through which Htr1a 3′UTR is repressed (Htr1a 3′UTR) | further results
CNCCC(Oc1ccc(C(F)(F)F)cc1)c1ccccc1 (stereo not drawn) [Fluoxetine] | robust increase | – | – | – | immobility time, tail suspension test, treated vs basal (mice [1]): decrease in immobility time
CN(C)CCCN1c2ccccc2CCc2ccccc21 [Imipramine] | – | – | – | – | miR-135a expression levels in the RN (miR-135a; 20 mg/kg): increased; miR-135a expression levels in the RN (miR-135a; listed as imipramine, 20 mg/kg): significantly increased; social avoidance (interaction ratio) (mice [2]): not those who received imipramine developed social avoidance; miR-135b expression levels in the RN (miR-135b): increased
CCOc1ccccc1OC(c1ccccc1)C1CNCCO1 (stereo not drawn) [Reboxetine] | no differences | – | – | – | miR-19 a/b levels in the PFC, acute administration (miR-19a/b; acute): down regulated; miR-19 a/b levels in the PFC, chronic administration (miR-19a/b; chronic): upregulated
miR-135a: mature miR-135a, Accession No. MIMAT0000428 (SEQ ID NO: 61); tested via overexpressing vector (SEQ ID NO: 210) (UAUGGCUUUUUAUUCCUAUGUGA; listed as Homo sapiens) | – | approximately 30% | approximately 30% | via the distal and not the proximal seed match | –
miR-135b: mature miR-135b, Accession No. MIMAT0000758 (SEQ ID NO: 62); tested via overexpressing vector (SEQ ID NO: 211) (UAUGGCUUUUCAUUCCUAUGUGA; listed as Homo sapiens) | – | approximately 50% | approximately 50% | via both predicted sites | –
